The source of these data is US12398151B2, “Sumo inhibitor compounds and uses thereof” (SUVALENT THERAPEUTICS, INC., priority 2019, dated 2025).

One assay addresses T1, SUMO E1 (Homo sapiens, UniProt Q9UBT2).
T1 sequence (Q9UBT2 1-640): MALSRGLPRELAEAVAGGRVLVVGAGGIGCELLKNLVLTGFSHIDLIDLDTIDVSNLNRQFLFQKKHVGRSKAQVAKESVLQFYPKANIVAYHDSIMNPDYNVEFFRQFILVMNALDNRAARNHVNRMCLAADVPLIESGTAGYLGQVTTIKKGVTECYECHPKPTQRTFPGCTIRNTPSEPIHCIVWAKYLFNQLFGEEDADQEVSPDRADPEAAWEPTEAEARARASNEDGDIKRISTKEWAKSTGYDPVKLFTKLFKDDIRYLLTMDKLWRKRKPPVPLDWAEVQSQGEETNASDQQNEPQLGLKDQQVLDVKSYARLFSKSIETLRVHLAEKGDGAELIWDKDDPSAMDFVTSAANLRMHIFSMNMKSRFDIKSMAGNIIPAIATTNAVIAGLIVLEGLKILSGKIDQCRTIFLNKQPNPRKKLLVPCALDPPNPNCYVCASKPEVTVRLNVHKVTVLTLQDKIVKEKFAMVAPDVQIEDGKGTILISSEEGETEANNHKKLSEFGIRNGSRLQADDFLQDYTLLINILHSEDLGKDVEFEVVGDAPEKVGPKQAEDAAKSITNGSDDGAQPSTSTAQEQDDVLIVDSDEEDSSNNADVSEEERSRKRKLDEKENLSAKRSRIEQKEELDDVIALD
T1 sequence (Q9UBE0 1-346 partner): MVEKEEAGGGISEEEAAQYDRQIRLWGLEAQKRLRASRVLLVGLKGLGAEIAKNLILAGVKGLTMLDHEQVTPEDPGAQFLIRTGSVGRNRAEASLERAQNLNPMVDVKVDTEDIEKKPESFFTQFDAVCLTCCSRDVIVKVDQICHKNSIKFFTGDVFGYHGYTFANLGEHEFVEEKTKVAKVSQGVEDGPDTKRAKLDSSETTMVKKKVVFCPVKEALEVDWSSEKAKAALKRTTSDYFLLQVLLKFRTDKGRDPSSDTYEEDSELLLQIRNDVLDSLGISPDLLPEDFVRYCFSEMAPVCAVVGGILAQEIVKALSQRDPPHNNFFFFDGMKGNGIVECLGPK
The assay can be described thus: SUMO E1 inhibition: UBC9-SUMO1 conjugation by SDS gel electrophoresis. The format is biochemical. To be noted: read-out: SUMO E1 percent inhibition of adduct formation; for inhibition at 10 µM: 10 uM compound; for inhibition at 25 µM: 25 uM compound; for inhibition at 9 µM: 9 uM compound; for inhibition at 3 µM: 3 uM compound, 15 min preincubation; for inhibition at 27 µM: 27 uM compound. The procedure:
(§1) Compounds are evaluated for their inhibitory effect on activating enzymes (E1) of ubiquitin, SUMO, Nedd8, Urm1, ISG15 or Atg7 using previously reported methods and protocols. One example is in: Allosteric inhibition of ubiquitin-like modifications by a class of inhibitor of SUMO-activating enzyme. Cell Chemical Biology, 26, 1-11, 2019. PMID: 28051857.
(§2) Compounds are tested in the following manner. The compound and SUMO E1 are incubated for a predetermined amount of time. UBC9, SUMO1, and ATP are added to the E1-compound mixture and incubated at 37° C. The reaction is quenched with Laemmli Buffer. The UBC9-SUMO1 conjugation is analyzed via SDS gel electrophoresis. The percent inhibition is measured by the intensity of the UBC9-SUMO1 band compared to the no compound control. Activities are listed as compound concentration (uM), preincubation time of E1 with compound (min), and percent inhibition of adduct formation (%). […]

Another assay deals with T2, Atg7 (Homo sapiens, UniProt O95352).
T2 sequence (O95352 1-703): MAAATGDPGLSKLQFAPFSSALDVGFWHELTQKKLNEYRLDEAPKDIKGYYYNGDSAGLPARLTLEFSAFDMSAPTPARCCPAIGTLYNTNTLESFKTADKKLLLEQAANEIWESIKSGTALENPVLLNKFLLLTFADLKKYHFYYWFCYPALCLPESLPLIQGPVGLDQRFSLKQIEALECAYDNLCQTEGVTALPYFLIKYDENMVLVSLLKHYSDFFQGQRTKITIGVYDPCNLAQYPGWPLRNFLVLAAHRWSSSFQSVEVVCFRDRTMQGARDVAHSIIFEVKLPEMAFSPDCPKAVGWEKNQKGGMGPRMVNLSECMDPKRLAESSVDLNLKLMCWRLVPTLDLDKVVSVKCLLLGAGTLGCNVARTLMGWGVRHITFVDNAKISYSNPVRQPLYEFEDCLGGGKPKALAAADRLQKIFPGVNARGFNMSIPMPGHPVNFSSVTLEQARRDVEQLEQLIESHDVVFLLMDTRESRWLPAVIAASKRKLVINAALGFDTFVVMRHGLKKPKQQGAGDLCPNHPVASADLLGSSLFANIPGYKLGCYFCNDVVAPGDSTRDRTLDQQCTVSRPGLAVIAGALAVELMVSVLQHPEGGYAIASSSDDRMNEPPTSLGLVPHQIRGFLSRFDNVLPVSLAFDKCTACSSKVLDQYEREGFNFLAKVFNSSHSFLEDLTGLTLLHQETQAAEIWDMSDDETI
In words: Atg7 activating enzyme (E1) inhibition. The format is biochemical. To be noted: 25 uM compound, 60 min preincubation; read-out: Atg7 percent inhibition of adduct formation. The procedure:
as §1, §2

Where two headings read alike, the source gives them in different places.

The term inhibition denotes the change of the read-out against control, counted positive when it falls. On to `C=CC(=O)N1Cc2sc(Cl)cc2[C@@H](c2ccccc2)C1` [Compound 73], for which the inhibition at 10 µM at SUMO E1 (60 min preincubation) was determined as 100%. The inhibition at 25 µM at Atg7 is under 1%.

Consider `C=CC(=O)N1Cc2sc(C)cc2[C@@H](c2ccccc2)C1` [Compound 74], for which the inhibition at 25 µM at SUMO E1 (60 min preincubation) is 10%; at Atg7, under 1%.

Consider `C=CC(=O)N1Cc2cc(Cl)ccc2[C@@H](c2ccccc2C)C1` [Compound 75], for which the inhibition at 10 µM at SUMO E1 (60 min preincubation) is 100%. Besides, the inhibition at 25 µM on Atg7 was under 1%.

`C=CC(=O)N1Cc2cccc(Cl)c2[C@@H](c2ccccc2C)C1` [Compound 76]: the inhibition at 25 µM at SUMO E1 (60 min preincubation) and at Atg7 was under 1% each time.

For the compound `C=CC(=O)N1Cc2cc(Br)ccc2[C@@H](c2ccccc2O)C1` [Compound 77], the values for the inhibition at 25 µM at SUMO E1 (60 min preincubation) and on Atg7 were 20% and 30%, respectively.

Turning to `C=CC(=O)N1Cc2cc(C#N)ccc2[C@@H](c2ccccc2)C1` [Compound 79], the inhibition at 25 µM on SUMO E1 (60 min preincubation) and on Atg7 was under 1% in each case.

As for `C=CC(=O)N1Cc2cc(Cl)ccc2[C@@H](c2ccccn2)C1` [Compound 80], the inhibition at 25 µM is 50% at SUMO E1 (30 min preincubation) and under 1% on Atg7.

For the compound `C=CC(=O)N1Cc2sc(CC)cc2[C@@H](c2ccccc2)C1` [Compound 82], at SUMO E1 (30 min preincubation), the inhibition at 10 µM turned out to be 10%. In addition, at Atg7, the inhibition at 25 µM was under 1%.

For the compound `C=CC(=O)N1Cc2oc(C)cc2[C@@H](c2ccccc2)C1` [Compound 83], the inhibition at 10 µM on SUMO E1 (30 min preincubation) was under 1%. For the same compound, the inhibition at 25 µM on Atg7 is under 1%.

Consider `C=CC(=O)N1Cc2sc(Cl)cc2[C@@H](c2ccccc2C)C1` [Compound 84], for which the inhibition at 2.5 µM at SUMO E1 (2.5 uM compound, 30 min preincubation) turned out to be 90%. At Atg7, the inhibition at 25 µM is under 1%.

Take `C=CC(=O)N1Cc2cc(C)ccc2[C@@H](c2ccccc2C)C1` [Compound 85]: the inhibition at 10 µM on SUMO E1 (30 min preincubation) is 100%. For the same compound, at Atg7, the inhibition at 25 µM was under 1%.

For the compound `C=CC(=O)N1Cc2cccc(C)c2[C@@H](c2ccccc2C)C1` [Compound 86], at SUMO E1 (30 min preincubation), the inhibition at 10 µM was under 1%. Moreover, at Atg7, the inhibition at 25 µM is under 1%.

With `C=CC(=O)N1Cc2cc(Cl)ccc2[C@@H](c2cccnc2)C1` [Compound 87], on SUMO E1 (30 min preincubation), the inhibition at 9 µM was under 1%. For the same compound, the inhibition at 25 µM on Atg7 was under 1%.

For the compound `C=CC(=O)N1Cc2cc(Br)cnc2[C@@H](c2ccccc2)C1` [Compound 88], the inhibition at 9 µM on SUMO E1 (30 min preincubation) is under 1%. Besides, on Atg7, the inhibition at 25 µM was under 1%.

In the case of `C=CC(=O)N1Cc2sc(C)cc2[C@@H](c2ccccc2C)C1` [Compound 89], the inhibition at 9 µM at SUMO E1 (30 min preincubation) stood at 95%. In addition, the inhibition at 25 µM at Atg7 was under 1%.

As for `Cc1ccccc1[C@H]1CN(C(=O)/C=C/c2ccccc2)Cc2sc(Br)cc21` [Compound 90], the inhibition at 25 µM on SUMO E1 (60 min preincubation) and on Atg7 was under 1% each time.

`Cc1cc2c(s1)CN(C(=O)/C=C/c1ccccc1)C[C@@H]2c1ccccc1` [Compound 91]: the inhibition at 9 µM at SUMO E1 (30 min preincubation) is under 1%. Moreover, at Atg7, the inhibition at 25 µM was under 1%.

`C=CC(=O)N1Cc2cc(Cl)ccc2[C@@H](c2ccncc2)C1` [Compound 92]: the inhibition at 20 µM at SUMO E1 (20 uM compound, 60 min preincubation) was 10%. Also, on Atg7, the inhibition at 25 µM is under 1%.

For the compound `C#CC(=O)N1Cc2sc(Cl)cc2[C@@H](c2ccccc2C)C1` [Compound 93], the inhibition at 9 µM on SUMO E1 (30 min preincubation) was 95%. Also, the inhibition at 25 µM on Atg7 was 100%.

Turning to `C=CC(=O)N1Cc2cc(Cl)ccc2[C@@H](c2ccc[nH]c2=O)C1` [Compound 94], the inhibition at 9 µM on SUMO E1 (30 min preincubation) is under 1%. On Atg7, the inhibition at 25 µM is under 1%.

As for `Cc1cc2c(s1)CN(C(=O)CC#N)C[C@@H]2c1ccccc1` [Compound 95], the inhibition at 9 µM on SUMO E1 (30 min preincubation) was under 1%. Moreover, the inhibition at 25 µM on Atg7 was under 1%.

As to `CCS(=O)(=O)N1Cc2sc(Cl)cc2[C@@H](c2ccccc2C)C1` [Compound 96], the inhibition at 9 µM on SUMO E1 (30 min preincubation) is under 1%. The inhibition at 25 µM on Atg7 amounted to 90%.

Regarding `C/C=C/C(=O)N1Cc2sc(Cl)cc2[C@@H](c2ccccc2C)C1` [Compound 97], the inhibition at 9 µM on SUMO E1 (30 min preincubation) is under 1%. The inhibition at 25 µM at Atg7 was under 1%.

On to `C=CC(=O)N1Cc2cc(Cl)c(Cl)cc2[C@@H](c2ncccc2C)C1` [Compound 98], for which the inhibition at 9 µM at SUMO E1 (30 min preincubation) is under 1%. Moreover, the inhibition at 25 µM at Atg7 is under 1%.

For `Cc1ccccc1[C@H]1CN(C(=O)/C=C/CN(C)C)Cc2sc(Cl)cc21` [Compound 99], on SUMO E1 (20 min preincubation), the inhibition at 9 µM is under 1%. At Atg7, the inhibition at 25 µM was under 1%.

In the case of `C=CC(=O)N1Cc2cc(Cl)c(Cl)cc2[C@@H](c2ccccc2)C1` [Compound 100], the inhibition at 3 µM at SUMO E1 turned out to be 30%. Moreover, at Atg7, the inhibition at 25 µM was under 1%.

Turning to `C=CC(=O)N1Cc2ccc(Cl)c(Cl)c2[C@@H](c2ccccc2)C1` [Compound 101], the inhibition at 3 µM at SUMO E1 turned out to be 30%. On Atg7, the inhibition at 25 µM was under 1%.

Consider `C=CC(=O)N1Cc2cc(Cl)ccc2[C@@H](C2CCCCC2)C1` [Compound 102], for which the inhibition at 9 µM on SUMO E1 (30 min preincubation) turned out to be 40%. Also, the inhibition at 25 µM at Atg7 is under 1%.

As for `C=CC(=O)N1Cc2sc(-c3ccccc3)cc2[C@@H](c2ccccc2)C1` [Compound 103], on SUMO E1 (30 min preincubation), the inhibition at 27 µM was under 1%. Moreover, the inhibition at 25 µM on Atg7 was under 1%.

In the case of `C=C(F)C(=O)N1Cc2sc(Cl)cc2[C@@H](c2ccccc2C)C1` [Compound 104], the inhibition at 25 µM at SUMO E1 (30 min preincubation) and at Atg7 was under 1% each time.

As to `Cc1ccccc1[C@H]1CN(C(=O)[C@@H]2CO2)Cc2sc(Cl)cc21` [Compound 105], the inhibition at 27 µM on SUMO E1 (30 min preincubation) is under 1%. The inhibition at 25 µM at Atg7 is under 1%.

For the compound `C=C(C)C(=O)N1Cc2sc(Cl)cc2[C@@H](c2ccccc2C)C1` [Compound 106], the inhibition at 27 µM at SUMO E1 (30 min preincubation) was under 1%. Besides, on Atg7, the inhibition at 25 µM is under 1%.

As to `Cc1ccccc1[C@H]1CN(C(=O)CBr)Cc2sc(Cl)cc21` [Compound 107], the inhibition at 9 µM on SUMO E1 (30 min preincubation) worked out at 100%. For the same compound, the inhibition at 25 µM on Atg7 was 100%.

In the case of `Cc1ccccc1[C@H]1CN(C(=O)/C=C/C(F)(F)F)Cc2sc(Cl)cc21` [Compound 108], on SUMO E1 (1 uM compound, 30 min preincubation), the inhibition at 1 µM was 100%. Also, the inhibition at 25 µM at Atg7 was under 1%.

In the case of `C=CC(=O)N1Cc2sc(Cl)cc2[C@@H](c2ccccc2OC)C1` [Compound 109], at SUMO E1 (30 min preincubation), the inhibition at 27 µM worked out at 30%. Further, the inhibition at 25 µM on Atg7 came to 80%.
